Where two headings read alike, the source gives them in different places.

The record followed here is US7479267B2, “Cell-or organ-differentiation controllers and method of controlling morphogenesis by using the same” (Okayama Prefecture, priority 2000, dated 2009).

For assay [1], the system named is Arabidopsis thaliana late-flowering mutant fca. It counts as in vivo. On the procedure: (§1) Arabidopsis thaliana late-flowering mutant fca (Accession No. N167) obtained from Arabidopsis Stock Center publicly established at the University of Nottingham (U.K.) and wild type plant Ler (Accession No. NW20) were grown at 23° C. under a day length condition of 16-h light/8-h dark cycle at 100 μE/m^2 light intensity and used in the experiments. As a medium, soil consisting of 2 Vermiculite (Asahi Kogyo), 2 Kureha molding for raising seedlings (KUREHA chemical industry Co., Ltd.) and 1 Vermiculite (Asahi Kogyo), which are stacked in layer as the lower, middle and the upper layers, respectively, was used.
(§2) BSO was dissolved in water at a final concentration of 10^−1M and used as a stock solution. Then, the treatment solutions at 10^−3-10^−7M were prepared from the stock solution (FIGS. 1-3). Two to three plants were placed per a pot (about 40×50 mm) and the treatment solution was added dropwise around the shoot apex at 5 ml/day per a pot. The treatment was performed on day 0 (the initiation date of treatment), 1, 3, 5 and 7, which set of treatments was regarded as one processing.
The effect of treatment was estimated based on the number of rosette leaves and the elongation rate of floral stem. […]
An aqueous solution of hydrogen peroxide was prepared immediately before use. […] The values are expressed as mean±standard error.

For assay [2] the test system is unchanged. It counts as in vivo. On the procedure: as §1, §2
(§3) Glutathione treatment was performed after dissolving glutathione into the BSO solution at a concentration of 10^−4 M.
(§4) The effect of treatment was estimated based on the number of rosette leaves and the elongation rate of floral stem. […] Cold treatment was performed at 4° C. concurrently with a chemical treatment.
(§5) (3) BSO treatment and glutathione (GSH) treatment was concurrently performed. BSO solution (concentration: 10^−4 M) to which glutathione was added was used in the same manner as described above.
(§6) An aqueous solution of hydrogen peroxide was prepared immediately before use. Two to three plants were placed per a pot (about 40×50 mm). On 17 days after imbibition and thereafter, the treatment solution was added dropwise around the shoot apex at 5 ml/day per a pot. The treatments were performed on day 0 (the initiation date of treatment), 1, 3, 5 and 7, which set of treatments was regarded as one processing. The time of floral transition was compared using the rosette leaf number as an index. […] The values are expressed as mean±standard error.
as §6, with “As a redox-state regulator” for “An aqueous solution”, “cells, KCN or NaN3 was used. KCN or sodium azide” for “hydrogen peroxide”, “use and used at concentrations described in FIG. 6 or 7, respectively.” for “use.”, “mm)” for “mm). On 17 days after imbibition”, “and” for “and thereafter, the”, “pot. KCN or NaN3 treatment was started 17 days after imbibition.” for “pot.”
This is another data set of the same source.

The subject of assay [3] is Arabidopsis thaliana wild type plant Ler. The assay is described as follows: Regulation of flowering time in wild type plant Ler. It counts as in vivo. On the procedure:
as §1, §2, §3, §4, §5

The test system of assay [4] is Nicotina tabacum L. callus. Briefly: Regulation of formation of adventitious bud in callus. The class given is cell-based. The following applies: 0.1 mM BSO, 1 mM GSH or 1 mM GSSG in adventitious formation medium; 3 weeks after induction. On the procedure: Nicotina tabacum L. leaves grown aseptically was callused in a callus-inducible medium (an essential medium consisting of 1% agar and Murashige and Skoog medium (MS medium) supplied with 0.1 mg/L benzyladenine (BA) and […] naphthaleneacetic acid (NAA)). The resultant callus was transferred to an adventitious formation medium (an essential medium consisting of 1% agar and Murashige and Skoog medium (MS medium) supplied with 1 mg/L BA and […] NAA). To the adventitious-formation medium, 0.1 mM BSO, 1 mM GSH or 1 mM GSSG (oxidized glutathione) was added as a redox-state regulator. The same medium lacking in supplements was prepared and used as a control medium.

For assay [5], the system named is Glycine max (cv: Tanbaguro). The settings on record: hydrogen peroxide 10^−3M; 23° C.; 1 week after imbibition; microscope. Here is the method:
Soft papers were laid in plastic dishes (100×15 mm) and seeded with Glycine max (cv: Tanbaguro). To the dish was added 15 ml of an aqueous solution of hydrogen peroxide (10^−3M) for imbibition.

In assay [6] the test system is Arabidopsis thaliana wild type plant Ler. The following applies: hydrogen peroxide 10^−3M; 23° C.; 1 week after imbibition; microscope. On the procedure: Soft papers were laid in plastic dishes (100×15 mm) and seeded with Arabidopsis thaliana wild type plant Ler. To the dish was added 15 ml of an aqueous solution of hydrogen peroxide (10^−3M) for imbibition. Germination was allowed to arise at 23° C. and the root hair formation was observed 1 week after imbibition under a microscope.

In assay [7] the test system is Triticum aesivum L. (cv. Shirasagi). The settings on record: 144 hours (6 days) after imbibition; hydrogen peroxide concentrations of FIG. 8.
Excerpt: Soft papers were laid in plastic dishes (100×15 mm), and seeded with Triticum aesivum L. (cv. Shirasagi) or Oryza sativa L. (cv. Nipponbare) (15 seeds/dish). […] In the figure, the values are expressed as mean±standard error.
The test system of assay [8] is Zinnia elegans L. (cv. Scarlet Frame). The settings on record: 60 mM hydrogen peroxide; 2 days after imbibition (FIG. 9). Here is the method: Soft papers were laid in plastic dishes (100×15 mm) and seeded with Zinnia elegans L. (cv. Scarlet Frame) (15 seeds/dish). To the dish was added a solution of hydrogen peroxide up to 15 ml, and allowed to germinate (light condition, 50 μE/m^2, 16-h light/8-h dark cycle; temperature 27° C.). Aqueous solutions each containing hydrogen peroxide at the concentrations indicated in FIG. 9 were prepared immediately before use and applied to the seeds. Observation was performed on 2 days after imbibition (see FIG. 9). In the figure, the concentration of hydrogen peroxide (unit: mM) used in treatment is shown at the right downside of each panel.

Take `CCCCS(=N)(=O)CCC(N)C(=O)O` [BSO, L-buthionine sulfoximine]: the “elongation rate of floral stem” value in assay [1] (fca, BSO treatment started day 17, monitored for several months (FIG. 2)) is “faster than that of control group”. The flowering time result in assay [2] (fca, BSO treatment started 12 days after imbibition (FIG. 1A)) was “delayed”. Moreover, in assay [2] (fca, BSO treatment started 17 days after imbibition, result 1 week afterward (FIG. 1C)), the “rosette leaf number compared with the water treated control group” value is recorded as “decreased”. Also, the bolting entry in assay [3] (Ler grown in an agar medium containing BSO just after germination) is “the bolting was delayed”. Besides, the transition to flowering result in assay [3] (Ler, BSO treatment started 12 days after imbibition (FIG. 1B)) was “significantly accelerated”. Moreover, in assay [4], the Adventitious buds/callus was 30 or more buds/callus.

On to `OO` [hydrogen peroxide], for which the root hair formation entry in assay [5] is reported as “not in the dish treated with hydrogen peroxide solution”. Moreover, in assay [6], the root hair formation result was “not in the dish treated with hydrogen peroxide solution”. Further, the “elongation rate of floral stem” value in assay [1] (in vivo) was “accelerated”. Further, the “cell elongation (length of coleoptile)” value in assay [7] is “cells were elongated”. For the same compound, the “time of floral transition based on the rosette leaf number” value in assay [2] (in vivo) is on record as “accelerated”. Besides, in assay [8], the cotyledon opening result is “occurred earlier”; the “order of emergence of cotyledons and root at germination” value is “cotyledons came out from the pericarp before root did”.

As for `N[C@@H](CCC(=O)N[C@@H](CS)C(=O)NCC(=O)O)C(=O)O` [GSH, glutathione], in assay [2] (in vivo), the “transition to flowering at 1 mM GSH” value is listed as “delay of the transition to flowering” and the “transition to flowering with increasing GSH concentration” value is “acceleration of the transition to flowering as GSH concentration increased first”. Also, the “transition to flowering with increasing GSH concentration” value in assay [3] (Ler, GSH given concurrently with BSO 10^−4 M, at the time when BSO accelerates flowering (FIG. 3A)) is listed as “delay of the transition to flowering as GSH concentration increased”. The Adventitious buds/callus in assay [4] is on record as 2-3 buds/callus.

As to oxidized glutathione [GSSG], the Adventitious buds/callus in assay [4] is recorded as 2-3 buds/callus.
